# Values of other authors, collected in patent US9255080B2, “Quinazolinedione derivatives as PARP inhibitors” (Janssen Pharmaceutica NV, priority 2004, dated 2016).
# What was measured:
# [1] = test system: ischemia and reperfusion of the heart; settings: rabbits, cited from earlier work
# [2] = test system: colitis induced by trinitrobenzene sulfonic acid; settings: rats, colitis by intraluminal trinitrobenzene sulfonic acid in 50% ethanol; cited from earlier work
Compound,reduction in infarct size ([1]; single injection 1 mg/kg),"reduction in infarct size in the heart ([1]; single injection 10 mg/kg, one minute before occlusion or one minute before reperfusion)",effect on inflammatory response and distal colon [2]
"Oc1cccc2c(O)nccc12 [1,5-dihydroxyisoquinoline]",38-48%,–,–
NC(=O)c1cccc(N)c1 [3-amino-benzamide],–,32-42%,reduced the inflammatory response and restored the morphology and the energetic status of the distal colon
